# Laboratory results taken from PubChem BioAssay (NCI).
#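 Exposure lasted 48 hours, with cells grown in 96-well plates and compounds tested at five concentrations. Definition used: TGI = concentration required for complete inhibition of growth.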
# What was measured:
# Test in all cases: NCI-60 cell line screen, 48 h
# 786-0 renal = system: 786-0 renal
# A498 renal = system: A498 renal
# A549 NSCLC = system: A549 NSCLC
# ACHN renal = system: ACHN renal
# BT-549 breast = system: BT-549 breast
# CAKI-1 renal = system: CAKI-1 renal
# CCRF-CEM leukemia = system: CCRF-CEM leukemia
# COLO 205 colon = system: COLO 205 colon
# DU-145 prostate = system: DU-145 prostate
# EKVX NSCLC = system: EKVX NSCLC
# HCC-2998 colon = system: HCC-2998 colon
# HCT-116 colon = system: HCT-116 colon
# HCT-15 colon = system: HCT-15 colon
# HL-60(TB) leukemia = system: HL-60(TB) leukemia
# HOP-62 NSCLC = system: HOP-62 NSCLC
# HOP-92 NSCLC = system: HOP-92 NSCLC
# HS 578T breast = system: HS 578T breast
# HT29 colon = system: HT29 colon
# IGROV1 ovarian = system: IGROV1 ovarian
# K-562 leukemia = system: K-562 leukemia
# KM12 colon = system: KM12 colon
# LOX IMVI melanoma = system: LOX IMVI melanoma
# M14 melanoma = system: M14 melanoma
# MALME-3M melanoma = system: MALME-3M melanoma
# MCF7 breast = system: MCF7 breast
# MDA-MB-231 breast = system: MDA-MB-231 breast
# MDA-MB-435 = system: MDA-MB-435
# MDA-N = system: MDA-N
# MOLT-4 leukemia = system: MOLT-4 leukemia
# NCI-H226 lung = system: NCI-H226 lung
# NCI-H23 lung = system: NCI-H23 lung
# NCI-H460 lung = system: NCI-H460 lung
# NCI-H522 lung = system: NCI-H522 lung
# NCI/ADR-RES ovarian = system: NCI/ADR-RES ovarian
# OVCAR-3 ovarian = system: OVCAR-3 ovarian
# OVCAR-4 ovarian = system: OVCAR-4 ovarian
# OVCAR-5 ovarian = system: OVCAR-5 ovarian
# OVCAR-8 ovarian = system: OVCAR-8 ovarian
# PC-3 prostate = system: PC-3 prostate
# RPMI-8226 leukemia = system: RPMI-8226 leukemia
# RXF 393 renal = system: RXF 393 renal
# SF-268 CNS = system: SF-268 CNS
# SF-295 CNS = system: SF-295 CNS
# SF-539 CNS = system: SF-539 CNS
# SK-MEL-2 melanoma = system: SK-MEL-2 melanoma
# SK-MEL-28 melanoma = system: SK-MEL-28 melanoma
# SK-MEL-5 melanoma = system: SK-MEL-5 melanoma
# SK-OV-3 ovarian = system: SK-OV-3 ovarian
# SN12C renal = system: SN12C renal
# SNB-19 CNS = system: SNB-19 CNS
# SNB-75 CNS = system: SNB-75 CNS
# SR leukemia = system: SR leukemia
# SW-620 colon = system: SW-620 colon
# T-47D breast = system: T-47D breast
# TK-10 renal = system: TK-10 renal
# U251 CNS = system: U251 CNS
# UACC-257 melanoma = system: UACC-257 melanoma
# UACC-62 melanoma = system: UACC-62 melanoma
# UO-31 renal = system: UO-31 renal
compound,measurement,setting,value
CCCCCNC(=O)c1cc2cc(CCl)ccc2oc1=O,TGI,786-0 renal,2820 nM
same,TGI,A498 renal,3.98 µM
same,TGI,A549 NSCLC,14.1 µM
same,TGI,ACHN renal,4.52 µM
same,TGI,BT-549 breast,> 46.3 µM
same,TGI,CAKI-1 renal,2570 nM
same,TGI,CCRF-CEM leukemia,> 100 µM
same,TGI,COLO 205 colon,2790 nM
same,TGI,DU-145 prostate,5.95 µM
same,TGI,EKVX NSCLC,9.94 µM
same,TGI,HCC-2998 colon,18.9 µM
same,TGI,HCT-116 colon,> 38.5 µM
same,TGI,HCT-15 colon,6.22 µM
same,TGI,HL-60(TB) leukemia,10.5 µM
same,TGI,HOP-62 NSCLC,14 µM
same,TGI,HOP-92 NSCLC,3.71 µM
same,TGI,HS 578T breast,> 54.7 µM
same,TGI,HT29 colon,9.58 µM
same,TGI,IGROV1 ovarian,18.6 µM
same,TGI,K-562 leukemia,> 100 µM
same,TGI,KM12 colon,> 44.5 µM
same,TGI,LOX IMVI melanoma,> 72.8 µM
same,TGI,M14 melanoma,> 51.4 µM
same,TGI,MALME-3M melanoma,7.5 µM
same,TGI,MCF7 breast,> 87.4 µM
same,TGI,MDA-MB-231 breast,3.72 µM
same,TGI,MDA-MB-435,> 60.8 µM
same,TGI,MDA-N,> 94.2 µM
same,TGI,MOLT-4 leukemia,> 100 µM
same,TGI,NCI-H226 lung,30.1 µM
same,TGI,NCI-H23 lung,11.5 µM
same,TGI,NCI-H460 lung,3.3 µM
same,TGI,NCI-H522 lung,17.1 µM
same,TGI,NCI/ADR-RES ovarian,> 66.8 µM
same,TGI,OVCAR-3 ovarian,26.6 µM
same,TGI,OVCAR-4 ovarian,26.6 µM
same,TGI,OVCAR-5 ovarian,7.99 µM
same,TGI,OVCAR-8 ovarian,> 100 µM
same,TGI,PC-3 prostate,2810 nM
same,TGI,RPMI-8226 leukemia,> 100 µM
same,TGI,RXF 393 renal,1780 nM
same,TGI,SF-268 CNS,12.4 µM
same,TGI,SF-295 CNS,24.7 µM
same,TGI,SF-539 CNS,16.8 µM
same,TGI,SK-MEL-2 melanoma,19.8 µM
same,TGI,SK-MEL-28 melanoma,> 100 µM
same,TGI,SK-MEL-5 melanoma,> 51.2 µM
same,TGI,SK-OV-3 ovarian,10.3 µM
same,TGI,SN12C renal,3.67 µM
same,TGI,SNB-19 CNS,> 69 µM
same,TGI,SNB-75 CNS,13.1 µM
same,TGI,SR leukemia,> 100 µM
same,TGI,SW-620 colon,> 100 µM
same,TGI,T-47D breast,2980 nM
same,TGI,TK-10 renal,2850 nM
same,TGI,U251 CNS,36.6 µM
same,TGI,UACC-257 melanoma,6.56 µM
same,TGI,UACC-62 melanoma,7.15 µM
same,TGI,UO-31 renal,3.07 µM
OCCN(CCO)CCn1cnc2c(NCc3ccccc3)ncnc21,TGI,786-0 renal,> 100000 nM
same,TGI,A498 renal,> 100 µM
same,TGI,A549 NSCLC,> 100 µM
same,TGI,ACHN renal,> 100 µM
same,TGI,BT-549 breast,> 100 µM
same,TGI,CAKI-1 renal,> 100000 nM
same,TGI,CCRF-CEM leukemia,> 100 µM
same,TGI,COLO 205 colon,> 100000 nM
same,TGI,DU-145 prostate,> 100 µM
same,TGI,EKVX NSCLC,> 100 µM
same,TGI,HCC-2998 colon,> 100 µM
same,TGI,HCT-116 colon,> 100 µM
same,TGI,HCT-15 colon,> 100 µM
same,TGI,HL-60(TB) leukemia,> 100 µM
same,TGI,HOP-62 NSCLC,> 100 µM
same,TGI,HOP-92 NSCLC,> 100 µM
same,TGI,HS 578T breast,> 100 µM
same,TGI,HT29 colon,> 100 µM
same,TGI,IGROV1 ovarian,> 100 µM
same,TGI,K-562 leukemia,> 100 µM
same,TGI,KM12 colon,> 100 µM
same,TGI,LOX IMVI melanoma,> 100 µM
same,TGI,M14 melanoma,> 100 µM
same,TGI,MALME-3M melanoma,> 100 µM
same,TGI,MCF7 breast,> 100 µM
same,TGI,MDA-MB-231 breast,> 100 µM
same,TGI,MDA-MB-435,> 100 µM
same,TGI,MDA-N,> 100 µM
same,TGI,MOLT-4 leukemia,> 100 µM
same,TGI,NCI-H226 lung,> 100 µM
same,TGI,NCI-H23 lung,> 100 µM
same,TGI,NCI-H460 lung,> 100 µM
same,TGI,NCI-H522 lung,> 100 µM
same,TGI,NCI/ADR-RES ovarian,> 100 µM
same,TGI,OVCAR-3 ovarian,> 100 µM
same,TGI,OVCAR-4 ovarian,> 100 µM
same,TGI,OVCAR-5 ovarian,> 100 µM
same,TGI,OVCAR-8 ovarian,> 100 µM
same,TGI,PC-3 prostate,> 100000 nM
same,TGI,RPMI-8226 leukemia,> 100 µM
same,TGI,RXF 393 renal,> 100000 nM
same,TGI,SF-268 CNS,> 100 µM
same,TGI,SF-295 CNS,> 100 µM
same,TGI,SF-539 CNS,> 100 µM
same,TGI,SK-MEL-2 melanoma,> 100 µM
same,TGI,SK-MEL-28 melanoma,> 100 µM
same,TGI,SK-MEL-5 melanoma,> 100 µM
same,TGI,SK-OV-3 ovarian,> 100 µM
same,TGI,SN12C renal,> 100 µM
same,TGI,SNB-19 CNS,> 100 µM
same,TGI,SNB-75 CNS,> 100 µM
same,TGI,SR leukemia,> 100 µM
same,TGI,SW-620 colon,> 100 µM
same,TGI,T-47D breast,> 100000 nM
same,TGI,TK-10 renal,> 100000 nM
same,TGI,U251 CNS,> 100 µM
same,TGI,UACC-257 melanoma,> 100 µM
same,TGI,UACC-62 melanoma,> 100 µM
same,TGI,UO-31 renal,> 100 µM
